Laboratory results: the Kinase Knowledgebase extract (Sharma et al. 2016)
“And” between values parts separate entries of the source, which are not always exact repeats. Identical values can stand only once.

Target: CDK2 (human) (UniProt P24941)
Experiment: Enzyme Assay

IC50 | Structure (SMILES)
> 5000 nM | C1=CCOCc2cc(ccc2OCCN2CCCC2)Nc2nccc(n2)-c2cc(co2)COC1
≤ 1000 nM | CN1CC=CCCOc2cc(ccc2N)-c2ccnc(n2)Nc2cccc(c2)C1
> 5000 nM | COc1ccc2cc1COCC=CCOCc1cc(ccc1OCCN1CCCC1)Nc1nccc-2n1
≤ 1000 nM | CN1CC=CCOCC2=CC=C(S2)c2ccnc(n2)Nc2ccc(OCCN3CCCC3)c(c2)C1
≤ 1000 nM | CN1CC=CCCOc2cccc(c2)-c2ccnc(n2)Nc2ccc(OCCn3cncn3)c(c2)C1
> 5000 nM | C1=CCOCc2cc(ccc2OCCN2CCCC2)Nc2nccc(n2)C2=CC=C(COC1)O2
> 5000 nM | CCN(CC)CCOc1ccc2cc1COCC=CCCOc1cccc(c1)-c1ccnc(n1)N2
≤ 1000 nM | CN1CC=CCCOc2cccc(c2)-c2ccnc(n2)Nc2ccc(N3CCOCC3)c(c2)C1
> 5000 nM | C1=CCOCc2cc(ccc2OCCN2CCCC2)Nc2nccc(n2)-c2coc(c2)COC1
≤ 1000 nM | CN1CC=CCCOc2cccc(c2)-c2ccnc(n2)Nc2ccc(OCCN3CCOCC3)c(c2)C1
≤ 1000 nM | C1=CCNCc2cccc(c2)Nc2nccc(n2)-c2cccc(c2)OCC1
≤ 1000 nM | CN1CC=CCOCC2=CC=C(O2)c2ccnc(n2)Nc2cccc(c2)C1
≤ 1000 nM | CN1CC=CCCOc2cc(F)cc(c2)-c2ccnc(n2)Nc2cccc(c2)C1
≤ 1000 nM | Cc1cnc2nc1-c1cccc(c1)OCCC=CCN(C)Cc1cccc(c1)N2
1000 to 5000 nM | COc1cc2cc(c1OCCN1CCCC1)COCC=CCOCc1cccc(c1)-c1ccnc(n1)N2
≤ 1000 nM | CN1CC=CCCOc2cccc(c2)-c2ccnc(n2)Nc2ccc(OCCN3CCCCC3)c(c2)C1
1000 to 5000 nM | CCN(CC)CCOc1ccc2cc1COCC=CCOCc1cccc(c1)-c1ccnc(n1)N2
> 5000 nM | C1=CCOCc2cc(ccc2OCCN2CCCC2)Nc2nccc(n2)C2=CC=C(COC1)S2
1000 to 5000 nM | c1cc2cc(c1)-c1ccnc(n1)Nc1ccc(OCCN3CCCC3)c(c1)COCC1CC1COC2 (stereo unspecified)
> 5000 nM | C1=CCOCc2cc(ccc2N2CCOCC2)Nc2nccc(n2)-c2cccc(c2)COC1
> 5000 nM | CCN(CC)CCOc1ccc2cc1COCC=CCCOc1cc(ccc1OC)-c1ccnc(n1)N2

IC50 | Structure (SMILES)
≤ 1000 nM | CCN(CC)CCOc1ccc2cc1CN(C)CC=CCCOc1cccc(c1)-c1ccnc(n1)N2
> 5000 nM | C1=CCOCc2cc(ccc2OCCN2CCCC2)Nc2nccc(n2)-c2csc(c2)COC1
1000 to 5000 nM | CN1CC=CCCOc2cccc(c2)-c2ccnc(n2)Nc2cc(ccn2)C1
1000 to 5000 nM | Fc1cc2cc(c1)-c1ccnc(n1)Nc1ccc(OCCN3CCCC3)c(c1)COCC=CCCO2
≤ 1000 nM | C1=CCN(C2CC2)Cc2cc(ccc2OCCN2CCOCC2)Nc2nccc(n2)-c2cccc(c2)OCC1
> 5000 nM | CN1CCN(c2ccc3cc2COCC=CCOCc2cccc(c2)-c2ccnc(n2)N3)CC1
1000 to 5000 nM | C1=CCOCc2cc(ccc2OCCN2CCCC2)Nc2nccc(n2)-c2cccc(c2)COC1
> 5000 nM | CCN(CC)CCOc1ccc2cc1COCC=CCCOc1cccc(c1)-c1nc(ncc1C)N2
≤ 1000 nM | CN1Cc2cccc(c2)Nc2nccc(n2)-c2cccc(c2)OCCC2CC2C1 (stereo unspecified)
1000 to 5000 nM | O=C1CCC=CCOCc2cccc(c2)Nc2nccc(n2)-c2cccc(c2)N1
1000 to 5000 nM | CN1CC=CCC(=O)Nc2cccc(c2)-c2ccnc(n2)Nc2cccc(c2)C1
1000 to 5000 nM | Fc1ccc2cc1COCC=CCOCc1cc(ccc1OCCN1CCCC1)Nc1nccc-2n1
≤ 1000 nM | CCS(=O)(=O)CCOc1ccc2cc1CN(C)CC=CCCOc1cccc(c1)-c1ccnc(n1)N2
≤ 1000 nM | CN1CC=CCCOc2cccc(c2)-c2ccnc(n2)Nc2ccc(OCCN3CCCC3)c(c2)C1
> 5000 nM | O=C1NCC=CCOCc2cccc(c2)Nc2nccc(n2)-c2cccc1c2
≤ 1000 nM | CN1CC=CCCOc2cccc(c2)-c2ccnc(n2)Nc2cc(N)cc(c2)C1
≤ 1000 nM | CN1CC=CCCOc2cc(F)cc(c2)-c2ccnc(n2)Nc2ccc(OCCN3CCCC3)c(c2)C1
≤ 1000 nM and > 5000 nM | COc1ccc2cc1COCC=CCOc1cccc(c1)-c1ccnc(n1)N2
≤ 1000 nM | C1=CCN(C2CC2)Cc2cccc(c2)Nc2nccc(n2)-c2cccc(c2)OCC1
1000 to 5000 nM | C1=CCOCc2cc(ccc2OCCN2CCCC2)Nc2nccc(n2)-c2cncc(c2)COC1
